Measured values taken from patent US12583921B2, “Targeted anti-SGLT1 avian IgY antibodies as treatment of pre-diabetes, type 2 diabetes and gestational diabetes” (Lay Sciences, Inc., priority 2022, dated 2026).
Marks after values point to notes of the source that are not given here.

Legend:
Wistar rats = assay: Oral Glucose Tolerance Test (OGTT) model in Wistar rats, single dose; assay type: in vivo; conditions: for blood glucose level, mean / area under curve, mean: metformin 200 mg/kg, n = 6
Experimental: An animal study was conducted to assess the effect of administering the anti-SGLT1 IgY antibody in an Oral Glucose Tolerance Test (OGTT) model in Wistar rats. The OGTT test was performed to determine if an intervention has blocked the intestinal absorption of orally given glucose load, and then lowering of the increase in blood glucose levels is observed. […] The OGTT studies were conducted on overnight fasting animals.

[1] = Experimental: The animals were acclimatized and were randomly distributed into 6 groups, each group comprised of 6 rats. The rats in group G1 served as a normal control group and were administered the vehicle (normal saline) alone at the dose volume of 10 mL/kg, whereas the rats in groups G2 and G3 were administered metformin and anti-SGLT1 IgY antibody, respectively, at the doses of 200 mg/kg and 500 mg/kg body weight for single administration.
SGLT1 = target: T1, SGLT1 (Homo sapiens, UniProt P13866); assay: Inhibition of glucose uptake in human intestinal cell line CaCo2; assay type: cell-based; conditions: CaCo2 cells; 800 μg/ml; relative to uptake without intervention; FIG. 3
T1 construct: a human intestinal cell line CaCo2, which expresses SGLT1; endogenous in cells; host or cells: CaCo2
T1 sequence (P13866 1-664): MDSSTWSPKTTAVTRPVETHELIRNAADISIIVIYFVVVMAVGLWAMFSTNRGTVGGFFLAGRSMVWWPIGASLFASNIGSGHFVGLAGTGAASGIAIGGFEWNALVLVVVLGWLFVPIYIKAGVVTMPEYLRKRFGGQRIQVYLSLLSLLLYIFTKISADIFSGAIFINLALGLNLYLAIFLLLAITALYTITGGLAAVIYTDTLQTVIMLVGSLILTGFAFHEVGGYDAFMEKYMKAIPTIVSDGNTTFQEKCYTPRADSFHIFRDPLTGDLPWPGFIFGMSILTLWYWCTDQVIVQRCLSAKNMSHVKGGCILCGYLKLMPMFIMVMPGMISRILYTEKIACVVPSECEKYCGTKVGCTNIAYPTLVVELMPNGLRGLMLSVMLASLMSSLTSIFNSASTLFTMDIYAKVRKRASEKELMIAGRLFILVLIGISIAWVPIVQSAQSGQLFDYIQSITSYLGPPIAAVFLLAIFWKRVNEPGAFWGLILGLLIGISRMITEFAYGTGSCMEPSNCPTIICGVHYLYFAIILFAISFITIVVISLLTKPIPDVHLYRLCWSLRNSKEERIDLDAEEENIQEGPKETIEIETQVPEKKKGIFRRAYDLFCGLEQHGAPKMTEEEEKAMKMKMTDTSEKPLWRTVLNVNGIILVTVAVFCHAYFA
Experimental: The IgY antibodies were then tested for their ability to inhibit the uptake of glucose in a human intestinal cell line CaCo2, which expresses SGLT1. The data in FIG. 3 are shown as percent inhibition of glucose uptake relative to glucose uptake in the absence of any intervention. […] In the figure, ** is P<0.01 Student's t-tests were performed to compare between the glucose inhibition shown by controls, peptide, and different concentration of IgY antibodies.

[2] = 30, 60, 90 and 120 min after 2 g/kg oral glucose

| Compound | blood glucose level, mean (Wistar rats; 0 minutes (before glucose 2 gm/kg), anti-SGLT1 IgY 500 mg/kg given 30 min before) [mg/dL] | area under curve, mean (Wistar rats; 0 minutes, anti-SGLT1 IgY 500 mg/kg) [mg/dL] | area under curve compared to normal control group G1 (Wistar rats; [2]) | blood glucose level compared to normal control group G1 (Wistar rats; [2]) | blood glucose level, mean (Wistar rats; 30 minutes after glucose 2 gm/kg, anti-SGLT1 IgY 500 mg/kg) | area under curve, mean (Wistar rats; 30 minutes, anti-SGLT1 IgY 500 mg/kg) | blood glucose level, mean (Wistar rats; 60 minutes after glucose 2 gm/kg, anti-SGLT1 IgY 500 mg/kg) | area under curve, mean (Wistar rats; 60 minutes, anti-SGLT1 IgY 500 mg/kg) | blood glucose level, mean (Wistar rats; 90 minutes after glucose 2 gm/kg, anti-SGLT1 IgY 500 mg/kg) | area under curve, mean (Wistar rats; 90 minutes, anti-SGLT1 IgY 500 mg/kg) | blood glucose level, mean (Wistar rats; 120 minutes after glucose 2 gm/kg, anti-SGLT1 IgY 500 mg/kg) | area under curve, mean (Wistar rats; 120 minutes, anti-SGLT1 IgY 500 mg/kg) | blood glucose level, mean (Wistar rats; 180 minutes after glucose 2 gm/kg, anti-SGLT1 IgY 500 mg/kg) | area under curve, mean (Wistar rats; 180 minutes, anti-SGLT1 IgY 500 mg/kg) | Mortality ([1]; male rats, single dose, metformin 200 mg/kg, anti-SGLT1 IgY 500 mg/kg, deaths/animals observed) | Individual Animal Clinical Signs Observations ([1]; male, Wistar, rat, in vivo, 1 day) | Body Weights, mean ([1]; rat, in vivo) [g] | percent inhibition of glucose uptake (SGLT1) |
| --- | --- | --- | --- | --- | --- | --- | --- | --- | --- | --- | --- | --- | --- | --- | --- | --- | --- | --- |
| CN(C)C(=N)N=C(N)N [Metformin, metformin] | 108.17 | 0.00 | Significantly decreased | Significantly decreased | 161.67** mg/dL | 8.99* mg/dL | 127.17* mg/dL | 9.63** mg/dL | 121.50* mg/dL | 8.29** mg/dL | 114.00** mg/dL | 7.85** mg/dL | 106.33** mg/dL | 3.67** mg/dL | 0/6 | 1 | 232.63 | – |
| QSGQLFDYIQSITSYLGPP [peptide used as antigen] | – | – | – | – | – | – | – | – | – | – | – | – | – | – | – | – | – | able to block the uptake of glucose |
